≈ marks a conversion by molar mass, not a printed value.
What was measured:
A. baumannii ATCC 19606 = test system: T1, A. baumannii ATCC 19606; test: microbe, parasite or virus in culture; conditions: Acinetobacter baumannii, ATCC19606
T1 construct: ATCC 19606
Experimental: (§1) MICs were determined by a microdilution broth method as recommended by the CLSI with MHB-II. For MICs of stable analogues, a 2-fold dilution of each compound was prepared in DMSO at 100-fold of the final concentration. The strains were inoculated with 5 × 10^5 cfu/mL in 96-well plates (each 100 μL/well), and 1 μL of DMSO solutions of the samples were added (contained less than 1% DMSO). The plates were incubated at 37 °C for 18 h and then MICs were determined. MICs of stable analogues in Table 1 were the highest value in three trials. MICs in Supplementary Table 1 were determined in one trial.  Fig. 2 Results of biological evaluations of hydrazone library. a General structures of hydrazine fragment moiety are shown. Each hydrazine class are represented by different colours (green; BZ, cyan; PA, grey; AC, yellow; AA, orange; LA). b–h MraY inhibitory activity and antibacterial activity of the hydrazone library. The bar graphs show the relative enzyme activity with DMSO as 100% when the compound is treated at given concentration (b,c; TUN at 100 nM, d,e; MRY at 10 nM, f.g; MRD at 100 nM, h; CAP at 1000 nM. n = 1), with the lower bars indicating higher inhibitory activity. The colour of the bars corresponds to Fig. 2a. […] Data of control compounds (van: vancomycin, col: colistin) are shown left column in each panel. E. faecium ATCC 35667, S. aureus ATCC 29213, P. aeruginosa ATCC 27853, K. pneumoniae ATCC 13883, E. cloacae ATCC 13047, A. baumannii ATCC 19606, E. coli ATCC 25922.

E. cloacae ATCC 13047 = test system: T2, E. cloacae ATCC 13047; test: microbe, parasite or virus in culture; conditions: Enterobacter cloacae, ATCC13047
T2 construct: ATCC 13047
Experimental: as §1

E. coli ATCC 25922 = test system: T3, E. coli ATCC 25922; test: microbe, parasite or virus in culture; conditions: Escherichia coli, ATCC25922
T3 construct: ATCC 25922
Experimental: as §1

E. faecium ATCC 35667 = test system: T4, E. faecium ATCC 35667; test: microbe, parasite or virus in culture; conditions: Enterococcus faecium, ATCC35667
T4 construct: ATCC 35667
Experimental: as §1

K. pneumoniae ATCC 13883 = test system: T5, K. pneumoniae ATCC 13883; test: microbe, parasite or virus in culture; conditions: Klebsiella pneumoniae, ATCC13883
T5 construct: ATCC 13883
Experimental: as §1

P. aeruginosa ATCC 27853 = test system: T6, P. aeruginosa ATCC 27853; test: microbe, parasite or virus in culture; conditions: Pseudomonas aeruginosa, ATCC27853
T6 construct: ATCC 27853
Experimental: as §1

S. aureus ATCC 29213 = test system: T7, S. aureus ATCC 29213; test: microbe, parasite or virus in culture; conditions: Staphylococcus aureus, ATCC29213
T7 construct: ATCC 29213
Experimental: as §1

MraYSA (S. aureus MraY) = MraYSA (S. aureus MraY) (Staphylococcus aureus, UniProt Q2FZ93); test: fluorescence assay of dansylated lipid I formation; type: biochemical
Sequence of MraYSA (S. aureus MraY) (Q2FZ93 whole entry): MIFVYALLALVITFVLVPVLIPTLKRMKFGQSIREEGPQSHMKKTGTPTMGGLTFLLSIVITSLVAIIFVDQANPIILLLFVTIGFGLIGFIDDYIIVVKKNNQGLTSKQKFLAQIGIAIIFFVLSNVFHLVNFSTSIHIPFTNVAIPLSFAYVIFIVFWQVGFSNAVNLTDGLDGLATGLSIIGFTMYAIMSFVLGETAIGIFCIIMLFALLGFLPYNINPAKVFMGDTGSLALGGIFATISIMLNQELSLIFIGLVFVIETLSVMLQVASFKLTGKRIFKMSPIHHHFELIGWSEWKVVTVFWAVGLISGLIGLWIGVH

CN[C@@H]1[C@H](O[C@H]2[C@H](O[C@H]3[C@H](O)[C@@H](O)[C@H](N=C(N)N)[C@@H](O)[C@@H]3N=C(N)N)O[C@@H](C)[C@]2(O)C=O)O[C@@H](CO)[C@H](O)[C@H]1O [streptomycin]
MIC (A. baumannii ATCC 19606): > 50 µM
MIC (E. cloacae ATCC 13047): > 50 µM
MIC (E. coli ATCC 25922): 50 µM (≈ 29.1 µg/mL)
MIC (E. faecium ATCC 35667): 50 µM (≈ 29.1 µg/mL)
MIC (K. pneumoniae ATCC 13883): 50 µM (≈ 29.1 µg/mL)
MIC (P. aeruginosa ATCC 27853): 50 µM (≈ 29.1 µg/mL)
MIC (S. aureus ATCC 29213): 50 µM (≈ 29.1 µg/mL)

CC[C@H]1OC(=O)[C@H](C)[C@@H](O[C@H]2C[C@@](C)(OC)[C@@H](O)[C@H](C)O2)[C@H](C)[C@@H](O[C@@H]2O[C@H](C)C[C@H](N(C)C)[C@H]2O)[C@](C)(O)C[C@@H](C)CN(C)[C@H](C)[C@@H](O)[C@]1(C)O [azithromycin]
MIC (A. baumannii ATCC 19606): 50 µM (≈ 37.4 µg/mL)
MIC (E. cloacae ATCC 13047): 50 µM (≈ 37.4 µg/mL)
MIC (E. coli ATCC 25922): 5 µM (≈ 3.74 µg/mL)
MIC (E. faecium ATCC 35667): < 0.5 µM
MIC (K. pneumoniae ATCC 13883): 5 µM (≈ 3.74 µg/mL)
MIC (P. aeruginosa ATCC 27853): 50 µM (≈ 37.4 µg/mL)
MIC (S. aureus ATCC 29213): 5 µM (≈ 3.74 µg/mL)

CC[C@H]1OC(=O)[C@H](C)[C@@H](O[C@H]2C[C@@](C)(OC)[C@@H](O)[C@H](C)O2)[C@H](C)[C@@H](O[C@@H]2O[C@H](C)C[C@H](N(C)C)[C@H]2O)[C@](C)(O)C[C@@H](C)C(=O)[C@H](C)[C@@H](O)[C@]1(C)O [erythromycin]
MIC (A. baumannii ATCC 19606): 50 µM (≈ 36.7 µg/mL)
MIC (E. cloacae ATCC 13047): > 50 µM
MIC (E. coli ATCC 25922): 50 µM (≈ 36.7 µg/mL)
MIC (E. faecium ATCC 35667): < 0.5 µM
MIC (K. pneumoniae ATCC 13883): > 50 µM
MIC (P. aeruginosa ATCC 27853): > 50 µM
MIC (S. aureus ATCC 29213): < 0.5 µM

CC(C)(C)c1ccc(C(=O)N/N=C/c2ccc(CN[C@H](C(=O)O)[C@H](O[C@@H]3O[C@H](CN)[C@@H](O)[C@H]3O)[C@H]3O[C@@H](n4ccc(=O)[nH]c4=O)[C@H](O)[C@@H]3O)cc2)cc1 [MRYp-BZ2]
IC50 (MraYSA (S. aureus MraY)): 2.4 nM

CO[C@H]1/C=C/O[C@@]2(C)Oc3c(C)c(O)c4c(O)c(c(/C=N/N5CCN(C)CC5)c(O)c4c3C2=O)NC(=O)/C(C)=C\C=C\[C@H](C)[C@H](O)[C@@H](C)[C@@H](O)[C@@H](C)[C@H](OC(C)=O)[C@@H]1C [rifampicin]
MIC (A. baumannii ATCC 19606): 5 µM (≈ 4.11 µg/mL)
MIC (E. cloacae ATCC 13047): 50 µM (≈ 41.1 µg/mL)
MIC (E. coli ATCC 25922): 5 µM (≈ 4.11 µg/mL)
MIC (E. faecium ATCC 35667): 5 µM (≈ 4.11 µg/mL)
MIC (K. pneumoniae ATCC 13883): 50 µM (≈ 41.1 µg/mL)
MIC (P. aeruginosa ATCC 27853): 50 µM (≈ 41.1 µg/mL)
MIC (S. aureus ATCC 29213): < 0.5 µM
